According to ChEMBL document CHEMBL1159321, “Novel acylated triterpene glycosides from Muraltia heisteria” (J Nat Prod, 2002):
Active and inactive are the calls of the source. The rule behind the calls is not given here.

System: HT-29
Assay: Cytotoxicity against human HT-29 cells at 12 to 50 ug/ml
Type: functional, cell-based

COc1cc(/C=C/C(=O)O[C@@H]2[C@H](O)[C@@H](O[C@@H]3O[C@@H](C)[C@H](O[C@@H]4OC[C@@H](O)[C@H](O[C@@H]5O[C@H](CO)[C@H](O[C@@H]6OC[C@H](O)[C@H](O)[C@H]6O)[C@H](O)[C@H]5O)[C@H]4O)[C@@H](O)[C@H]3O)[C@H](OC(=O)[C@]34CCC(C)(C)C[C@H]3C3=CC[C@@H]5[C@@]6(C)C[C@H](O)[C@H](O[C@@H]7O[C@H](CO)[C@@H](O)[C@H](O)[C@H]7O)[C@@](C)(C(=O)O)[C@@H]6CC[C@@]5(C)[C@]3(CO)CC4)O[C@@H]2C)cc(OC)c1OC
Activity: Active
